# In patent EP2402322A1, “1,2,3,4-tetrahydroisoquinoline derivative and its use as orexin receptor antagonist” (Actelion Pharmaceuticals Ltd., priority 2010, dated 2012):
# Like-named read-outs stand apart in the source and are kept apart here.
# Key:
# F344 rats = experiment: Fear-potentiated startle paradigm; assay type: in vivo; details: 300 mg/kg oral gavage, 1 h before test, n=16 F344 rats; Figure 2
# Excerpt: The fear-potentiated startle (FPS) paradigm is a model of conditioned fear in rodents that relates to emotional states of fear and anxiety. Rats can be trained to associate an initially neutral, soon-to-be conditioned stimulus (CS: e.g. light) with an aversive, unconditioned stimulus (US; e.g. foot shook). When tested after training for their startle reflex response to brief (ms) noise bursts in the absence vs. the presence of the CS (e.g. light), rats generally show greater startle amplitudes during the presence of the CS which now serves as a predictor of shock. […] This model translates to humans where a similar training procedure can be implemented and a FPS response can also be evoked in the presence of a shock predicting cue. […] The current paradigm represents a translational animal model that is predictive of anxiolytic activity of a drug.
# Method: Sixteen adult male F344 rats were trained for two consecutive days (conditioning phase) to associate a light-stimulus with a foot shock (0.4 mA). On the following day they were tested for their response to startle eliciting noise stimuli which were delivered randomly under light (cue) or dark (no cue) conditions. […] Average startle responses to noise stimuli of 90, 100 and 110dB intensity under light and dark conditions during the test day were measured and electrically transduced into a millivolt signal. […]
# human orexin-1 receptor = target: T1, human orexin-1 receptor (Homo sapiens, UniProt O43613); experiment: Intracellular calcium measurements (FLIPR), CHO cells, 3 nM orexin-A as agonist; assay type: cell-based
# T1 construct: expressed in transfected cells; host or cells: CHO cells (G418 selection)
# T1 sequence (O43613 1-425): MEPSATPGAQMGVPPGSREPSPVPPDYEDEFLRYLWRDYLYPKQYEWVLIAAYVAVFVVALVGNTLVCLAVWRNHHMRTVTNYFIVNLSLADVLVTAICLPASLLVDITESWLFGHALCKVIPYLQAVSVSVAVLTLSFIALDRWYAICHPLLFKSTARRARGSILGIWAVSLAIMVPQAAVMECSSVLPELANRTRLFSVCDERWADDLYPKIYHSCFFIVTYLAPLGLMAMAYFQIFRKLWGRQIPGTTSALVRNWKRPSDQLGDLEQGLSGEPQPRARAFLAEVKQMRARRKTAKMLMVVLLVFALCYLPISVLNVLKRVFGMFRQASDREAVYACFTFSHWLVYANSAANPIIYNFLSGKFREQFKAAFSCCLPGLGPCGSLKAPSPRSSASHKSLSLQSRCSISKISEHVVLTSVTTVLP
# Protocol: Chinese hamster ovary (CHO) cells expressing the human orexin-1 receptor and the human orexin-2 receptor, respectively, are grown in culture medium (Ham F-12 with L-Glutamine) containing 300 µg/ml G418, 100 U/ml penicillin, 100 µg/ml streptomycin and 10 % heat inactivated fetal calf serum (FCS). The cells are seeded at 20'000 cells / well into 384-well black clear bottom sterile plates (Greiner). The seeded plates are incubated overnight at 37°C in 5% CO2.
# Human orexin-A as an agonist is prepared as 1 mM stock solution in MeOH: water (1:1), diluted in HBSS containing 0.1 % bovine serum albumin (BSA), NaHCO3: 0.375g/l and 20 mM HEPES for use in the assay at a final concentration of 3 nM. […]
# Within the Fluorescent Imaging Plate Reader (FLIPR Tetra, Molecular Devices), antagonists are added to the plate in a volume of 10 µl/well, incubated for 10 min and finally 10 µl/well of agonist is added. Fluorescence is measured for each well at 1 second intervals, and the height of each fluorescence peak is compared to the height of the fluorescence peak induced by 3 nM orexin-A with vehicle in place of antagonist. […] The calculated IC50 values may fluctuate depending on the daily cellular assay performance. […]
# [1] = Measurement of brain and systemic concentration after oral administration; assay type: in vivo, male wistar rats; details: rat; for concentration at 3 h: 3 h after oral administration (100 mg/kg), n = 3, male wistar rats, 100% PEG 400; for capacity to cross the blood-brain barrier: summary statement
# Protocol: The compounds are formulated in 100% PEG 400. Samples are collected in the same animal at the same time point (+/- 5 min). Blood is sampled from the vena cava caudalis into containers with EDTA as anticoagulant and centrifuged to yield plasma. Brain is sampled after cardiac perfusion of 10 mL NaCl 0.9% and homogenized into one volume of cold phosphate buffer (pH 7.4). All samples are extracted with MeOH and analyzed by LC-MS/MS. Concentrations are determined with the help of calibration curves.
# human orexin-2 receptor = target: T2, human orexin-2 receptor (Homo sapiens, UniProt O43614); experiment: Intracellular calcium measurements (FLIPR), CHO cells, 3 nM orexin-A as agonist; assay type: cell-based; details: geometric mean; antagonism of 3 nM orexin-A
# T2 construct: expressed in transfected cells; host or cells: CHO cells (G418 selection)
# T2 sequence (O43614 1-444): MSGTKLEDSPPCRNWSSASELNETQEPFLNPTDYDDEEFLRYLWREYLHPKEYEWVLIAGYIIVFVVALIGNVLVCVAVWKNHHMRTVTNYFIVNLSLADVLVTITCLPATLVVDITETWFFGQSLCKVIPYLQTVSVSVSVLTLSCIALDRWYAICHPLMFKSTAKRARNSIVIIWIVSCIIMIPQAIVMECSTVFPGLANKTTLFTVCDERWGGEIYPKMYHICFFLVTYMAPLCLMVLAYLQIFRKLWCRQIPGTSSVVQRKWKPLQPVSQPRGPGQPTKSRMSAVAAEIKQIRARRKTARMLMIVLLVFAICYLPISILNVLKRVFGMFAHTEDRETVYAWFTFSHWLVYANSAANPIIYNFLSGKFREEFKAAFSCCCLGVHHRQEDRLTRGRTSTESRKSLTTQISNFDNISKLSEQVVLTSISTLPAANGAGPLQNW
# Protocol: Fluorescence is measured for each well at 1 second intervals, and the height of each fluorescence peak is compared to the height of the fluorescence peak induced by 3 nM orexin-A with vehicle in place of antagonist. […] Optimized conditions were achieved by adjustment of pipetting speed and cell splitting regime. The calculated IC50 values may fluctuate depending on the daily cellular assay performance. Fluctuations of this kind are known to those skilled in the art.
# rat [2] = details: animal model of conditioned fear; cited from earlier work
# rat [3] = details: cited from earlier work
# [4] = rat; cited from earlier work
# Male Sprague Dawley rats = experiment: Acquisition of morphine induced locomotor sensitization; assay type: in vivo; details: 300 mg/kg p.o. 2 h before each morphine injection (10 mg/kg i.p.), 4 pairings; Figure 1
# Excerpt: Method: Although, in essence, locomotor sensitization is a non-associative learning process, the context plays a major role in the development and expression of locomotor sensitization. Thus, drug injections are usually administered intermittently in a context different from the home cage, such as an open field, where locomotor activity can be quantitatively measured. Drugs are regularly administered in high concentrations and via routes of administration with a fast onset of action (such as intraperitoneal or intravenous injections). In order to induce robust locomotor sensitization drugs are administered typically once a day over a period of several days. Once established in such a way, locomotor sensitization can be observed in response to a new drug challenge over a period of up to several months.
# Method: Male Sprague Dawley rats are injected with morphine (10 mg/kg i.p.) and placed immediately afterwards in an open field (45 x 40 x 33 cm) for 45 min. Total distance moved (TDM) of the animal is recorded automatically via video-tracking. This procedure is repeated 4 times, every 2nd day, so that each animal received a total number of 4 pairings of morphine injection within the context of the open field.
# Wistar rats = experiment: EEG, EMG and behavioural indices of alertness recorded by radiotelemetry (absence of sleep-promoting effects); assay type: in vivo
# Protocol: EEG and EMG signals were measured by telemetry using TL11 M2-F20-EET miniature radiotelemetric implants (Data Science Int.) with two pairs of differential leads.
# Surgical implantation was performed under general anesthesia with Ketamin/Xylazln, for cranial placement of one differential pair of EEG electrodes and one pair of EMG leads inserted in either side of the muscles of the neck. After surgery, rats recovered in a thermoregulated chamber and received analgesic treatment with subcutaneous buprenorphine twice a day for 2 d. They were then housed individually and allowed to recover for a minimum of 2 weeks. Thereafter, rats—in their home cage—were placed in a ventilate sound-attenuating box, on a 12-h light / 12-h dark cycle, for acclimatization before continuous EEG / EMG recordings started. The telemetric technology that we used in this study allows accurate and stress-free acquisition of biosignals in rats placed In their familiar home cage environment, with no recording leads restricting their movements. Variables analyzed included four different stages of vigilance and sleep, spontaneous activity in the home cage and body temperature. Sleep and wake stages were evaluated using a rodent scoring software (Somnologica Science) directly processing electrical biosignals on 10 s contiguous epochs. The scoring is based on frequency estimation for EEG and amplitude discrimination for EMG and locomotor activity. Using these measurements, the software determines the probability that all components within each epoch best represent active waking (AW), quiet waking (QW), non-REM-sleep (NREM) or REM-sleep (REM). The percentage of total time spent in AW, QW. NREM- and REM-sleep was calculated per 12 h light or dark period. The latency to the onset of the first significant NREM- and REM-sleep episodes and the frequency and duration of those episodes were also calculated. […] All variables were subsequently recorded for 12 h following administration of the orexin receptor antagonist.
# [5] = brain, read-out: concentration in brain [B]
# [6] = plasma, read-out: concentration in plasma [P]
# [7] = 300 mg/kg po, Wistar rats, 12 h following administration
SMILES,fear-potentiated startle response under light (cue) conditions as compared to vehicle (F344 rats),"IC50 (human orexin-1 receptor; geometric mean, antagonism of 3 nM orexin-A, read-out: IC50 value on the orexin-1 receptor)","concentration at 3 h [1, 5]","concentration at 3 h [1, 6]",capacity to cross the blood-brain barrier [1],IC50 (human orexin-2 receptor),activity in the rat fear potentiated startle paradigm (rat [2]),alertness (active wake and locomotion) (rat [3]),time spent in both REM and NREM sleep (rat [3]),crossing of the blood-brain barrier [4],systemic bioavailability [4],acquisition of locomotor sensitization to morphine (total distance moved) (Male Sprague Dawley rats),effect on NREM sleep compared to vehicle controls (Wistar rats; [7]),effect on REM sleep compared to vehicle controls (Wistar rats; [7]),effect on active wake compared to vehicle controls (Wistar rats; [7]),effect on home cage activity compared to vehicle controls (Wistar rats; [7]),"effect in a model relevant to sleep induction (Wistar rats; at relevant dose, summary statement)",IC50 (human orexin-1 receptor)
"CCCCNC(=O)[C@@H](c1ccccc1)N1CCc2cc(OC)c(OC)cc2[C@@H]1Cc1ccc(OC)c(OC)c1 [Reference Compound 1, (R)-2-[(S)-1-(3,4-Dimethoxy-benzyl)-6,7-dimethoxy-3,4-dihydro-1H-isoquinolin-2-yl]-N-butyl-2-phenyl-acetamide, reference compound]",no effect,12 nM,530 ng/g,850 ng/mL,only moderate capacity,> 300 nM,–,–,–,–,–,–,–,–,–,–,–,–
"CNC(=O)[C@@H](c1ccccc1)N1CCc2cc(OC)c(OC)cc2[C@@H]1CCc1ccc(C(F)(F)F)cc1 [(2R)-2-{(1S)-6,7-dimethoxy-1-[2-(4-trifluoromethyl-phenyl)-ethyl]-3,4-dihydro-1H-isoquinolin-2-yl}-N-methyl-2-phenyl-acetamide]",–,–,–,–,–,–,active,decrease alertness,dose-dependently increase,cross the blood-brain barrier,good,–,–,–,–,–,–,–
"COc1ccc(C[C@H]2c3cc(OC)c(OC)cc3CCN2[C@@H](C(=O)NC(C)C)c2ccccc2)cc1OC [COMPOUND, (R)-2-[(S)-1-(3,4-dimethoxy-benzyl)-6,7-dimethoxy-3,4-dihydro-1H-isoquinolin-2-yl]-N-isopropyl-2-phenyl-acetamide]",significantly reduced,–,880 ng/g,1460 ng/mL,crossed the blood-brain barrier,–,–,–,–,–,–,significantly reduced,-2%,+1%,-4%,-3%,no effect,27 nM
